Results as given in patent publication US20140294856A1, “COMBINATION TREATMENT COMPRISING A HDAC6 INHIBITOR AND AN AKT INHIBITOR” (priority 2011, published 2014).
In brackets after ≈: the same amount, converted by molar mass. Like-named read-outs stand apart in the source and are kept apart here.

Experiments:
γH2AX = γH2AX foci formation (DNA damage marker); details: in vitro and in vivo
HCT116 cells [1] = test: Acetylation biomarkers by western blotting (with washout); type: cell-based, human
Procedure: FIG. 1. HDAC-C1A irreversible activity. A. […] inhibitory activity of HDAC-C1A was tested using HeLa nuclear extracts and compared to the negative (reversible) control HDAC-C1B. B Growth inhibitory effect of the different compounds in HCT-116 cells at indicated time and compared to growth inhibitory after 72 hours of incubation.
(§1) HSP90 protein expression was not altered (FIG. 2).

[2] = Stability in PBS at acidic pH, HPLC-UV; type: physicochemical; details: down to pH 2, cell free, 10 μM in PBS, 1 hour, 37° C.
Procedure: FIG. 3. Impact of the pH on the stability of HDAC-C1A. HDAC-C1A was incubated at 10 μM in PBS for 1 hour at 37° C. and the concentration was evaluated using HPLC-UV. The pH of PBS was adjusted using HCL.
(§2) The drug was stable after oral, parenteral and intravenous administration for 24 h (last time point examined). […] The Cma and AUC0-24h following i.p. injection (20 mg/kg) were 3.2 μg/mL and 11.2 μg/mL*h, respectively. […] The acid instability of HDAC-C1A could therefore be improved by enteric coating as a means to avoid breakdown in the stomach. […] HDAC-C1A was also tested in HCT116 human colon cancer xenograft model using a refined dose and scheduling. […] This dose was non-toxic (no reduction in body weight) (FIG. 5.D). The acetylated form of α-tubulin (biomarker of response to HDAC6 inhibition) could be observed after 14 days of treatment and could be detected as early as 6 hours after the 1st injection (FIG. 5.E.). The acetylated form of Histone 3 (biomarker of response of class I histones) could be observed as early as 2 hours after the 1st injection and remain after 14 days of treatment (FIG. 5.E).

HCT116 xenograft = test: Biomarkers screening in HCT116 xenograft tumours; type: in vivo, mice
Procedure: (§3) FIG. 5. Anti-tumour activity of HDAC-C1A in A2780 (A & B) and HCT116 (C & D) xenograft models (Tumours volumes relative to tumour volume at day 1 (A & C) and corresponding body weight (relative to body weight at day 1) (B & D)). E. Biomarkers screening at early time points following a single injection of HDAC-C1A in HCT116 xenograft at 40 mg/kg compared to a continuous 14 days treatment at the indicated dose. Tumours were excised 6 hours following the last injection.
as §2

Ishikawa = test: Phospho-AKT levels by western blotting; type: cell-based; details: endometrial cancer cell line Ishikawa (PTEN-null)
HDAC1 = HDAC1 (Homo sapiens, UniProt Q13547); test: Enzyme inhibition activity, Fluor-de-Lys kit; type: biochemical
[3] = test system: HCT116 human colon cancer xenograft
HDAC-8 = HDAC-8 (Homo sapiens, UniProt Q9BY41); test: Enzyme inhibition activity, Fluor-de-Lys kit; type: biochemical
Excerpt: HDAC-C1A is a particularly preferred HDAC6 inhibitor of the invention. […] HDAC-C1A is approximately 7-fold more specific for HDAC6 than for HDAC-8 and approximately 17-fold more specific for HDAC6 when compared with HDAC1 (see Table 1). […] As brain permeability remains a major limitation for drug treatment of CNS disorders, HDAC-C1A, or compounds derived from HDAC-C1A, appear to be very promising drug candidates.
(§4) FIG. 20 (Table 1): Enzyme inhibition activity using HeLa nuclear extract and the Fluor-de-Lys kit.

MRP1 = MRP1 (Homo sapiens, UniProt P33527); test: Impact of MRP1 on cytotoxicity, MK-571 pre-treatment in A549 cells
Procedure: The impact of ABC transporters on the cytotoxicity of HDAC-C1A was assessed using cell lines with differential expression of the ABC transporters and by using inhibitors.

[4] = test system: CHO cells deficient in DNA repair; test: Growth inhibition in cell lines deficient in DNA repair machinery; type: cell-based
HDAC6 = HDAC6 (Homo sapiens, UniProt Q9UBN7); test: Enzyme inhibition activity, Fluor-de-Lys kit; type: biochemical
Excerpt: as §4, §1

KELLY = test: Growth inhibition, SRB assay, 72 hours; type: cell-based; details: KELLY neuroblastoma
MCF7 = test: Phospho-AKT levels by western blotting; type: cell-based; details: breast cancer cell line MCF7
[5] = Pharmacokinetics following a single injection; type: in vivo
Procedure: FIG. 4. Pharmacokinetic profile of HDAC-C1A following a single injection at 20 mg/kg.
FIG. 22 (Table 3): Pharmacokinetic data of HDAC-C1A following a single injection.
as §2

P-gp = P-gp (Homo sapiens, UniProt P08183)
HCT116 cells [6] = test: Phospho-AKT levels by western blotting; type: cell-based, human; details: 10 μM
A549 cells = test: Impact of BSO (GSH depletion) on growth inhibition, SRB assay; type: cell-based; details: 10 μM BSO for 24 hours
[7] = test system: A2780 human ovarian cancer xenograft; test: Anti-tumour activity in A2780 xenograft model; type: in vivo
Procedure: as §3, §2

A2780 = test: Phospho-AKT levels by western blotting; type: cell-based, human; details: ovarian cancer cell line A2780
[8] = HDAC-C1A 20 mg/kg bid combined with API-2 1 mg/kg/d
[9] = HDAC-C1A combined with BEZ-235 20 mg/kg/day, given 8 hours apart
[10] = homologous recombination repair

MRP1, sequence (P33527 whole entry): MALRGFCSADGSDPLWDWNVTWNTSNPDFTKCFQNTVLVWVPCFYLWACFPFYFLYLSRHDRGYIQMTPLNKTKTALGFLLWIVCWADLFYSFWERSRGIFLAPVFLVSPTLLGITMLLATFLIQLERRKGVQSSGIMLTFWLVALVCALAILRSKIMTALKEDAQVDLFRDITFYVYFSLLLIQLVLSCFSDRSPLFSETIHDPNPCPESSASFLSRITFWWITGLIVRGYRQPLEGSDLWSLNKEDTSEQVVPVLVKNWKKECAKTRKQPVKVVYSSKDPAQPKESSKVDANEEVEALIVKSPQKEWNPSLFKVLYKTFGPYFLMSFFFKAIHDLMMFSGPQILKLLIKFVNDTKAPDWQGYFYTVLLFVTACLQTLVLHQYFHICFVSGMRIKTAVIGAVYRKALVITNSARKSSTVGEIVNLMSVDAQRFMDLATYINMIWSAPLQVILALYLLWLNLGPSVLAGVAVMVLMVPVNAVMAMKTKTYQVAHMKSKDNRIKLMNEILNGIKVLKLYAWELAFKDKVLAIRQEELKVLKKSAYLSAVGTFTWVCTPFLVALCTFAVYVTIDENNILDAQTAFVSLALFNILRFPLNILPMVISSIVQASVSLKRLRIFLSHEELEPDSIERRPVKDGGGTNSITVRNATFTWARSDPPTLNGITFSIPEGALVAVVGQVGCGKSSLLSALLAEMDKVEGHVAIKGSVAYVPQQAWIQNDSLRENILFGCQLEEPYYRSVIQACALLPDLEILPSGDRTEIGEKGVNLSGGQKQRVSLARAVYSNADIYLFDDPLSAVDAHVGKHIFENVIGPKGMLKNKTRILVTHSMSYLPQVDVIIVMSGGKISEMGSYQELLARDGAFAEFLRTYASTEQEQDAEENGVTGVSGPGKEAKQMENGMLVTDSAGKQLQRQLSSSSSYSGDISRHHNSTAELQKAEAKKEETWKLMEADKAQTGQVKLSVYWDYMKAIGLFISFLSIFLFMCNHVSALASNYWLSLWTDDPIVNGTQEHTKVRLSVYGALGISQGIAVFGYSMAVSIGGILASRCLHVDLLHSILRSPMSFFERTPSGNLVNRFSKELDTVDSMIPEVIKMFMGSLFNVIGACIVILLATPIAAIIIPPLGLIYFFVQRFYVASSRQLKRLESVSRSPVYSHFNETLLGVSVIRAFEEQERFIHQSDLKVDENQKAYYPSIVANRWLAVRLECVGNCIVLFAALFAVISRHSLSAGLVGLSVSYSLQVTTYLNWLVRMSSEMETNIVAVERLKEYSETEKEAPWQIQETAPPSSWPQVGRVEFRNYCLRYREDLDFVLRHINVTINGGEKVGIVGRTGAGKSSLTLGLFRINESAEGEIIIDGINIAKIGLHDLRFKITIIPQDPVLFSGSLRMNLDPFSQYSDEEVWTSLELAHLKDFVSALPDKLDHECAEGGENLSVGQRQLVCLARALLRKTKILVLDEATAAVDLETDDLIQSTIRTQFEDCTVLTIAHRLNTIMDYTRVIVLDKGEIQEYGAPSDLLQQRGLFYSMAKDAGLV
HDAC1, sequence (Q13547 whole entry): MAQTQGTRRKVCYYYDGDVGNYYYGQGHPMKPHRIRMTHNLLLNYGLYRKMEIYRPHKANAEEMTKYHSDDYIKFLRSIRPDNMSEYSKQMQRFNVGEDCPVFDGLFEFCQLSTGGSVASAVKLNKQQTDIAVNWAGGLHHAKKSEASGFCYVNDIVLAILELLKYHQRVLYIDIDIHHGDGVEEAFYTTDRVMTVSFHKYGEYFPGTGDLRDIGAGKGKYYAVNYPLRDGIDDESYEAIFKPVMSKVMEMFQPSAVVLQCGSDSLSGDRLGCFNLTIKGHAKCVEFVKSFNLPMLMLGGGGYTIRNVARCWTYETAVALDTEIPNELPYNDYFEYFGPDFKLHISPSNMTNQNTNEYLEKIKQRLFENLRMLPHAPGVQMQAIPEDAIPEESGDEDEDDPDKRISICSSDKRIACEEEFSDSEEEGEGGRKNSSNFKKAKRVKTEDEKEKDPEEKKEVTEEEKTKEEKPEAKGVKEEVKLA
HDAC-8, sequence (Q9BY41 whole entry): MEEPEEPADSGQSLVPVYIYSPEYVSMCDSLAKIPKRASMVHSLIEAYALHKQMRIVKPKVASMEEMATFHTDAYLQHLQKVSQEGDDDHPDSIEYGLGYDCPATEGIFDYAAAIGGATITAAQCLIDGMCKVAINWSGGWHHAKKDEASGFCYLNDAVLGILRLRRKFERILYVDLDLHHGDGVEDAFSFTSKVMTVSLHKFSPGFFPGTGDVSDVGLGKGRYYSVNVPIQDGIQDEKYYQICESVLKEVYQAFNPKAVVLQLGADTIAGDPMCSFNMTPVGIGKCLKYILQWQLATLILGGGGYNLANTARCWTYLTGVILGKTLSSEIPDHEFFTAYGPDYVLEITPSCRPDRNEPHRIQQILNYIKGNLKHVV
HDAC6, sequence (Q9UBN7 whole entry): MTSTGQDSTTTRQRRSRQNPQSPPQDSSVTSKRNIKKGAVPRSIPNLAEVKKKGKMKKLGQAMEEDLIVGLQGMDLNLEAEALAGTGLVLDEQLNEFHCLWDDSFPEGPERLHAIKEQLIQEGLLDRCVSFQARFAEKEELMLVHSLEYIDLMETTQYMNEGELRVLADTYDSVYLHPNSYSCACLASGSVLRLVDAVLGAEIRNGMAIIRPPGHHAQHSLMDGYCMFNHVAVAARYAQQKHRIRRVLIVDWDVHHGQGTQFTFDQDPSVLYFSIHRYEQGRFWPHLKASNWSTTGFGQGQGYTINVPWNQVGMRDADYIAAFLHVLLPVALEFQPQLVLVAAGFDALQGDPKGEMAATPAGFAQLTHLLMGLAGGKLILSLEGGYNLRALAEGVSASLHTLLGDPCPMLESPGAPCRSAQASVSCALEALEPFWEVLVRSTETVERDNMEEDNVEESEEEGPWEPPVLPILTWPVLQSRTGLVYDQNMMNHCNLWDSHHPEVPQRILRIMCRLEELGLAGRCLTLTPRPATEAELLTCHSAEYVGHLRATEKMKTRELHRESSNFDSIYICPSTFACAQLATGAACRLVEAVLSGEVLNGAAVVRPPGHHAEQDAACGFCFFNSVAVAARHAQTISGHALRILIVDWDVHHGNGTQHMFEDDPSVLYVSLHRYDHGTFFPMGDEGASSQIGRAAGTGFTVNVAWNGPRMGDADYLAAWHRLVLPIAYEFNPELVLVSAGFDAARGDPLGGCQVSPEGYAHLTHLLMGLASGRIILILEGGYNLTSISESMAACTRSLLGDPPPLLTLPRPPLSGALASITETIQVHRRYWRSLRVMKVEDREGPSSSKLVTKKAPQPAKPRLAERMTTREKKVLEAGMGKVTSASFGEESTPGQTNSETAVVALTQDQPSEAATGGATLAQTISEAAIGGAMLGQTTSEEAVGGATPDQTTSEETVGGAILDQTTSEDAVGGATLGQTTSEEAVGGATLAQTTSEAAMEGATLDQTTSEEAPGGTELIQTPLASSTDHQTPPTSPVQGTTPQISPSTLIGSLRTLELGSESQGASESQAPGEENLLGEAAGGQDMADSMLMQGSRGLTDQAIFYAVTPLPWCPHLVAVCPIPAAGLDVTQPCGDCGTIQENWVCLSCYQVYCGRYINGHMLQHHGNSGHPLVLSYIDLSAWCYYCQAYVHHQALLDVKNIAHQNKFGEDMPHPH
P-gp, sequence (P08183 whole entry): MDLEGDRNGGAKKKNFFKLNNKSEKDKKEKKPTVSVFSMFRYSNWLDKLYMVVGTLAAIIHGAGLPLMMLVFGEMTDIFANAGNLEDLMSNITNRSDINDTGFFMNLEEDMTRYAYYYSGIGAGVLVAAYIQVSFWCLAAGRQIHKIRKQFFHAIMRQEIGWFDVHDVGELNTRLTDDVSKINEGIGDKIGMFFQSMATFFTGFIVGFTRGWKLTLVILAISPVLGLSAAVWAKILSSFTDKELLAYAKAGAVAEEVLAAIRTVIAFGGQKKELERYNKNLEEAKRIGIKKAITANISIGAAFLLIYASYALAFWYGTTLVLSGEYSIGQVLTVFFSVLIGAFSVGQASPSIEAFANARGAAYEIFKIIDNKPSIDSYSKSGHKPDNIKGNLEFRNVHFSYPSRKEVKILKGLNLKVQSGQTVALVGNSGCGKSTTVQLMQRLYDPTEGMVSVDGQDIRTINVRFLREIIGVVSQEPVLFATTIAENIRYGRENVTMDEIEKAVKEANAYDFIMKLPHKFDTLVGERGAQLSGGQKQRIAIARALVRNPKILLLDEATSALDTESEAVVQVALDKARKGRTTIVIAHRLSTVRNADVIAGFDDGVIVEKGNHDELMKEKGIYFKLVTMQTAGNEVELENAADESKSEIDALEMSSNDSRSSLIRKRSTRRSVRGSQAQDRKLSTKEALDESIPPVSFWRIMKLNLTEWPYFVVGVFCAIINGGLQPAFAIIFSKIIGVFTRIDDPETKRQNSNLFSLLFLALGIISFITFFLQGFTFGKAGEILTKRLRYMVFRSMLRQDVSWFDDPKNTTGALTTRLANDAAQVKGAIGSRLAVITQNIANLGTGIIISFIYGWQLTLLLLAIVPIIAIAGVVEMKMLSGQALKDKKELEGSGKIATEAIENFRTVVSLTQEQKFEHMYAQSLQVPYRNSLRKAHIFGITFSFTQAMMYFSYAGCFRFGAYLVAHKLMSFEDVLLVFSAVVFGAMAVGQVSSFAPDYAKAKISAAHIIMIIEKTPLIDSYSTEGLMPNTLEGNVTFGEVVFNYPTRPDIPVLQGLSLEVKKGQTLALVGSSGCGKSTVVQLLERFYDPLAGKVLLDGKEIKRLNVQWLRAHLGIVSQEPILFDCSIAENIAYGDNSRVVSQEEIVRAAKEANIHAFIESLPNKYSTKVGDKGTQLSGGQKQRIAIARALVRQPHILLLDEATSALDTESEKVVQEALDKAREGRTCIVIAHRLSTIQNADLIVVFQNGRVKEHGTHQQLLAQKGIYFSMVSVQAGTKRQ

SMILES: CC(/C=C/C(=O)NO)=C\c1ccc(NS(=O)(=O)c2ccc(N(CCCl)CCCl)cc2)cc1 [HDAC-C1A]
- γH2AX foci formation (γH2AX): time and a dose dependent increase
- HSP90 protein expression (HCT116 cells [1]): not altered
- acetylation markers at low concentration and early time point (HCT116 cells [1]; 1 μM and 4 hours): increase of acetyl-tubulin and other markers of HDAC6 inhibition
- acetyl form of HSP90 (HCT116 cells [1]; 4 h and 24 h, 1 μM and 10 μM): dose and time dependent increase
- acetylation of histone H3, H4 and α-tubulin after washout (HCT116 cells [1]; treatment 4 hours, then washout): maintained at 4 hours after washout
- stability across acidic pH [2]: relative acidic degradation
- anti-apoptotic factor Bcl2 (HCT116 xenograft; after 48 hours): down-regulated
- earliest detection of acetylated Histone 3 after 1st injection (HCT116 xenograft; single injection 40 mg/kg): 2 h
- earliest detection of acetylated α-tubulin after 1st injection (HCT116 xenograft; single injection 40 mg/kg): 6 h
- P-AKT levels increased (Ishikawa): not
- fold more specific for HDAC6 compared with HDAC1 (HDAC1): approximately 17 fold
- TGD2x [3, 8]: 2.7 ± 1.3 days
- TGI compared with vehicle [3, 8]: 54%
- TGD2x ([3]; HDAC-C1A alone 20 mg/kg/day): 3.8 ± 1.3 days
- TGI ([3]; HDAC-C1A alone 20 mg/kg/day): 69%
- TGD2x [3, 9]: 8.2 ± 1.3 days
- TGI [3, 9]: 74%
- TGI ([3]; HDAC-C1A combined with BEZ-235, given 30 minutes apart): 115%
- TGD2x ([3]; i.p. 20 mg/kg b.i.d.): 5.7 ± 1.4 days
- TGI compared with vehicle ([3]; i.p. 20 mg/kg b.i.d.): 78%
- toxicity (body weight) ([3]; i.p. 20 mg/kg b.i.d.): non-toxic
- fold more specific for HDAC6 than for HDAC-8 (HDAC-8): approximately 7 fold
- substrate of MRP1 (MRP1): non-substrates
- sensitivity (GI50 ratio) of cells deficient in XRCC3 vs proficient [4, 10]: as sensitive as the parental proficient cell lines
- sensitivity (GI50 ratio, fold) of cells deficient in XRCC2 vs proficient [4, 10]: as sensitive as the parental proficient cell lines
- sensitivity (GI50 ratio, fold) of cells deficient in XRCC5 vs proficient ([4]; non homologous end joining): as sensitive as the parental proficient cell lines
- sensitivity (GI50 ratio) of cells deficient in ERCC1 vs proficient ([4]; nucleotide excision repair): as sensitive as the parental proficient cell lines
- sensitivity of cells deficient in XPB vs proficient ([4]; nucleotide excision repair): as sensitive as the parental proficient cell lines
- IC50 for HDAC6 (HDAC6): 0.063 µg/mL
- GI50 (KELLY): 0.14 µg/mL (≈ 0.281 µM)
- P-AKT levels (MCF7): increased
- AUC0-24h ([5]; given orally): 94000 ng·h/mL
- Cmax ([5]; given orally): 700 ng/mL
- AUC0-24h ([5]; i.p. injection 20 mg/kg): 11200 ng·h/mL
- Cmax ([5]; i.p. injection 20 mg/kg): 3200 ng/mL
- dose proportionality of pharmacokinetics ([5]; i.p. injection, up to 160 mg/kg): dose proportionate
- oral bioavailability ([5]; in vivo, po): 16%
- stability after administration ([5]; oral, parenteral and intravenous, 24 h last time point): stable
- fold resistance (GI50 ratio) P-gp over-expressing 3T3 vs parental (P-gp): 17 fold
- fold increase of P-AKT (HCT116 cells [6]; 4 h): 1.5 fold
- fold increase of P-AKT (HCT116 cells [6]; 24 h): 2 fold
- impact of BSO on growth inhibition (GI50 ratio) (A549 cells): No difference
- body weight loss ([7]; 80 mg/kg/day, in some animals, at 7 days, treatment stopped): 10%
- Tumour Growth Delay (TGD2x) ([7]; i.p. 80 mg/kg/day): 3 ± 0.3 days
- Tumour Growth Inhibition (TGI) compared with vehicle ([7]; i.p. 80 mg/kg/day): 74%
- P-AKT levels (A2780): increased
